Measured values reported in patent US20220233661A1, “METHOD OF DETERMINING ELIGIBILITY OF CANCER PATIENT FOR PEPTIDE VACCINE THERAPY” (priority 2019, published 2022).

What was measured:
[1] = test system: anti-peptide IgG in plasma; experiment: Test Example 4: peptide-specific IgG titer pre and post vaccination, bead-based multiplexed Luminex assay; format: in vivo, human; settings: for Pre-vaccination IgG Negative (number of patients) / Pre-vaccination IgG Positive (number of patients): cut off 10 FIU; for Post vaccination IgG: number of (positive) patients among vaccinated: positive IgG response; for Pre-vaccination IgG Negative patients: number of 2,588 patients below 10 FIU; for Pre-vaccination IgG Positive patients: number of 2,588 patients with ≥10 FIU; for Post vaccination IgG: (positive) patients: number of vaccinated patients with positive IgG response; for Correlation between immune responses and OS: Negative (mOS): patients with negative post-vaccination IgG response to the peptide; for Correlation between immune responses and OS: Positive (mOS): patients with positive post-vaccination IgG response to the peptide
In short: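 Plasma taken before vaccination and at the end of the first and second cycles; incubated with peptide-coupled beads 2 hours at 25° C., then biotinylated anti-human IgG (gamma chain-specific) and streptavidin-PE. Bead FIU read by Luminex; positivity cutoff 10 FIU in 100-fold diluted samples.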

cancer patients = experiment: Test Example 4: correlation between vaccination with individual peptides (or peptide sets) and OS, Cox proportional hazards regression; format: in vivo, human; settings: for HR: Cox proportional hazards regression, OS; for Correlation between immune responses and OS: Negative (mOS) / Correlation between immune responses and OS: Positive (mOS): Table 20, <64% neutrophil and ≥26% lymphocyte; for Correlation between immune responses and OS: Negative (mOS): vaccinated patients with negative IgG response; for Correlation between immune responses and OS: Positive (mOS): vaccinated patients with positive IgG response
In short: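 Univariate and multivariate Cox proportional hazards regression of each of 31 vaccine peptides against OS (enrollment to death or last contact), giving HR with 95% CI; also run separately in 2,085 advanced (stage IV+recurrence) and 503 stage I-III patients. Two-sided p<0.05 considered significant.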

[2] = Table 20, patients showing both <64% neutrophil and ≥26% lymphocyte
[3] = patients showing detectable levels
[4] = patients showing positive responses
[5] = 2,085 advanced cancer patients (stage IV+recurrence)
[6] = Table 18, all 2,588 cases, vaccinated vs non-vaccinated
[7] = Table 18, all 2,588 cases, median OS of patients under PPV containing the peptide
[8] = Table 18, all 2,588 cases, median OS of patients under PPV not containing the peptide
[9] = Table 19, 2,085 advanced cancer patients (stage IV+recurrence)
[10] = Table 19, 2,085 advanced cancer patients (stage IV+recurrence), PPV containing the peptide
[11] = Table 19, 2,085 advanced cancer patients (stage IV+recurrence), PPV not containing the peptide
[12] = Table 21, patients showing both <64% neutrophil and ≥26% lymphocyte
[13] = Table 21, patients showing both <64% neutrophil and ≥26% lymphocyte, PPV containing the peptide
[14] = Table 21, patients showing both <64% neutrophil and ≥26% lymphocyte, PPV not containing the peptide

Row | Sequence | Post vaccination IgG Median (FIU) [1, 2] | Pre-vaccination IgG Median (FIU) [1, 2] [FIU] | Pre-vaccination IgG Negative (number of patients) [1, 2] | Pre-vaccination IgG Positive (number of patients) [1, 2] | Post vaccination IgG: number of (positive) patients among vaccinated [1, 2] | Pre-vaccination IgG Negative patients [1] | Pre-vaccination IgG Positive patients [1] | Post vaccination IgG: (positive) patients [1] | Pre-vaccination IgG Median (FIU) [1, 3] [FIU] | Post vaccination IgG Median (FIU) [1, 4] | Correlation between immune responses and OS: Negative (mOS) [1] [months] | Correlation between immune responses and OS: Positive (mOS) [1] [months] | HR (cancer patients; [6]) | Vaccinate cases (mOS) (cancer patients; [7]) | Non-vaccinate cases (mOS) (cancer patients; [8]) | HR (cancer patients; [9]) | Vaccinate cases (mOS) (cancer patients; [10]) | Non-vaccinate cases (mOS) (cancer patients; [11]) | Correlation between immune responses and OS: Negative (mOS) (cancer patients) [months] | Correlation between immune responses and OS: Positive (mOS) (cancer patients) [months] | further results
1 | LYCESVHNF (listed as Homo sapiens) [PAP-213] | 15,379 FIU | 33 | 489 | 577 | 121(94) | 1,166 | 1,422 | 279(196) | 33 | 14,912 FIU | 7.0 | 21.7 | 0.9 | 279(16.6) M | 1271(11.4) M | 0.8 | 228(14.9) M | 1018(10.0) M | 11.3 | 28.1 | median OS of non-vaccinated cases (cancer patients; [5]): 10 months; median OS of vaccinated cases (cancer patients; [5]): 14.9 months; HR (cancer patients; [12]): 0.9; Vaccinate cases (mOS) (cancer patients; [13]): 121(23.7) M; Non-vaccinate cases (mOS) (cancer patients; [14]): 504(17.9) M
2 | NVLHFFNAPL (listed as Homo sapiens) [HNRPL-501] | 12,553 FIU | 48 | 587 | 479 | 148(111) | 1,399 | 1,189 | 355(223) | 45 | 10,405 FIU | 6.6 | 19.3 | 1.0 | 355(12.1) M | 1,107(11.6) M | 1.0 | 291(10.4) M | 897(10.3) M | 10.6 | 28.2 | HR (cancer patients; [12]): 0.9; Vaccinate cases (mOS) (cancer patients; [13]): 148(19.6) M; Non-vaccinate cases (mOS) (cancer patients; [14]): 445(17.5) M
3 | NYSVRYRPGL (listed as Homo sapiens) [MRP3-1293] | 6,491 FIU | 27 | 423 | 643 | 132(83) | 1,030 | 1,558 | 324(157) | 27 | 6,003 FIU | 8.6 | 20.6 | 1.1 | 324(11.9) M | 1,226(12.1) M | 1.0 | 253(10.5) M | 993(10.4) M | 12.6 | 24.3 | HR (cancer patients; [12]): 1.0; Vaccinate cases (mOS) (cancer patients; [13]): 132(17.5) M; Non-vaccinate cases (mOS) (cancer patients; [14]): 493(18.4) M
4 | QIRPIFSNR (listed as Homo sapiens) [SART3-734] | 7,098 FIU | 96 | 231 | 835 | 253(116) | 547 | 2,041 | 625(225) | 111 | 4,816 FIU | 11.0 | 22.3 | 1.0 | 625(10.9) M | 589(11.3) M | 1.0 | 502(9.5) M | 467(10.2) M | 14.8 | 29.3 | HR (cancer patients; [12]): 0.9; Vaccinate cases (mOS) (cancer patients; [13]): 253(17.9) M; Non-vaccinate cases (mOS) (cancer patients; [14]): 254(17.5) M
5 | RLAEYQAYI (listed as Homo sapiens) [SART3-309] | 6,009 FIU | 33 | 253 | 813 | 154(99) | 667 | 1,921 | 328(158) | 35 | 3,070 FIU | 10.5 | 21.4 | 0.9 | 328(12.1) M | 722(11.1) M | 0.9 | 259(11.6) M | 603(9.8) M | 10.4 | 28.9 | HR (cancer patients; [12]): 0.9; Vaccinate cases (mOS) (cancer patients; [13]): 154(19.0) M; Non-vaccinate cases (mOS) (cancer patients; [14]): 280(15.6) M
6 | RYLTQETNKV (listed as Homo sapiens) [PTHrP-102] | 5,336 FIU | 27 | 710 | 356 | 91(51) | 1,702 | 886 | 204(99) | 27 | 1,423 FIU | 11.4 | 20.0 | 0.9 | 204(13.3) M | 1,346(11.9) M | 0.9 | 168(11.8) M | 1078(10.3) M | 13.9 | 39 | HR (cancer patients; [12]): 0.9; Vaccinate cases (mOS) (cancer patients; [13]): 91(21.2) M; Non-vaccinate cases (mOS) (cancer patients; [14]): 534(18.0) M
7 | TFDYLRSVL (listed as Homo sapiens) [Lck-486] | 17,613 FIU | 40 | 167 | 899 | 356(274) | 404 | 2,184 | 879(573) | 42 | 15,147 FIU | 7.2 | 19.4 | 0.9 | 879(12.3) M | 671(11.3) M | 0.9 | 709(11.1) M | 537(9.6) M | 11.4 | 25.2 | median OS of non-vaccinated cases (cancer patients; [5]): 9.6 months; median OS of vaccinated cases (cancer patients; [5]): 11.1 months; HR (cancer patients; [12]): 0.9; Vaccinate cases (mOS) (cancer patients; [13]): 356(19.1) M; Non-vaccinate cases (mOS) (cancer patients; [14]): 269(17.6) M; median OS of vaccinated cases (cancer patients; all 2,588 cases, PPV containing the peptide): 12.3 months; median OS of non-vaccinated cases (cancer patients; all 2,588 cases, PPV not containing the peptide): 11.3 months
8 | TYSVSFDSL (listed as Homo sapiens) [PSMA-624] | 10,984 FIU | 26 | 680 | 386 | 37(26) | 1,638 | 950 | 101(50) | 24 | 7,772 FIU | 5.5 | 21.7 | 1.0 | 101(11.7) M | 1,449(12.0) M | 1.1 | 78(7.9) M | 1168(10.7) M | 21.2 | 24.4 | HR (cancer patients; [12]): 0.9; Vaccinate cases (mOS) (cancer patients; [13]): 37(21.2) M; Non-vaccinate cases (mOS) (cancer patients; [14]): 588(18.0) M
